Measured values from patent publication US4160829A, “Antibacterial 1,2,4-oxadiazolylacetamido cephalosporins” (Gist-Brocades N.V., priority 1972, dated 1979).
≈ marks a conversion by molar mass, not a printed value. Where two headings read alike, the source gives them in different places.

Assays:
Staph.aureus A 2001 [1] = assay: micro serial dilution test; format: cell-based, Staphylococcus aureus; details: Staphylococcus aureus, A2001, 18 h, micro serial dilution (in brackets), about 18 hours, 30° C. or 37° C.; read-out: minimal inhibitory concentration (MIC)
Shig.equir. T 3 = assay: agar serial dilution test; format: cell-based; details: 24 h, 37° C., read-out: minimal inhibitory concentration (MIC)
Pseud.aerug. 2396 = assay: agar serial dilution test; format: cell-based; details: agar serial dilution, 24 hours, 37° C.; read-out: minimal inhibitory concentration (MIC)
Strep. faec. L 80 = assay: agar serial dilution test; format: cell-based, Streptococcus faecalis; details: Enterococcus faecalis; agar serial dilution, 24 hours, 37° C.; read-out: minimal inhibitory concentration (MIC)
Past.multo. A 723 = assay: agar serial dilution test; format: cell-based, Pasteurella multocida; details: Pasteurella multocida; agar serial dilution, 24 hours, 37° C.; read-out: minimal inhibitory concentration (MIC)
Prot.mirab. H 3 = assay: agar serial dilution test; format: cell-based, Proteus mirabilis; details: Proteus mirabilis; agar serial dilution, 24 hours, 37° C.; read-out: minimal inhibitory concentration (MIC)
Pseud.aerug. H 10 = assay: agar serial dilution test; format: cell-based; details: agar serial dilution, 24 hours, 37° C.; read-out: minimal inhibitory concentration (MIC)
Kleb.pneum. A 809 = assay: agar serial dilution test; format: cell-based, Klebsiella pneumoniae; details: Klebsiella pneumoniae; agar serial dilution, 24 hours, 37° C.; read-out: minimal inhibitory concentration (MIC)
Prot.morg. 2241 = assay: agar serial dilution test; format: cell-based; details: 24 h, agar serial dilution, 24 hours, 37° C.; read-out: minimal inhibitory concentration (MIC)
Salm.typh. R 127 = assay: agar serial dilution test; format: cell-based; details: 37° C.; for MIC: 24 h, read-out: minimal inhibitory concentration (MIC)
Staph.aureus A 2000 [2] = assay: micro serial dilution test; format: cell-based, Staphylococcus aureus; details: Staphylococcus aureus, A2000, 18 h, micro serial dilution (in brackets), about 18 hours, 30° C. or 37° C.; read-out: minimal inhibitory concentration (MIC)
Esch.coli U 20 = assay: agar serial dilution test; format: cell-based, Escherichia coli; details: Escherichia coli
Staph.aureus A 2001 [3] = assay: agar serial dilution test; format: cell-based, Staphylococcus aureus; details: Staphylococcus aureus, A2001, 24 h, agar serial dilution, 24 hours, 37° C.; read-out: minimal inhibitory concentration (MIC)
Staph.aureus A 2000 [4] = assay: agar serial dilution test; format: cell-based, Staphylococcus aureus; details: Staphylococcus aureus, A2000, 24 h, agar serial dilution, 24 hours, 37° C.; read-out: minimal inhibitory concentration (MIC)
Staph.aureus A 355 [5] = assay: agar serial dilution test; details: Staphylococcus aureus, A355, 24 h, read-out: minimal inhibitory concentration (MIC), agar serial dilution, 24 hours, 37° C.; penicillinase-producing strain
[6] = test system: Pseud.aerug. Wyeth A 1058; assay: agar serial dilution test; format: cell-based; details: agar serial dilution, 24 hours, 37° C.; read-out: minimal inhibitory concentration (MIC)
Staph.aureus A 321 = assay: agar serial dilution test; format: cell-based, Staphylococcus aureus; details: Staphylococcus aureus, A321, 24 h, agar serial dilution, 24 hours, 37° C.; read-out: minimal inhibitory concentration (MIC)
Prot.mirab. A 1200 = assay: agar serial dilution test; format: cell-based, Proteus mirabilis; details: agar serial dilution, 24 hours, 37° C.; for MIC: Proteus mirabilis, 24 h, read-out: minimal inhibitory concentration (MIC)
Prot.mirab. L 93 = assay: agar serial dilution test; format: cell-based, Proteus mirabilis; details: Proteus mirabilis
Staph.aureus A 355 [7] = assay: micro serial dilution test; format: cell-based, Staphylococcus aureus; details: Staphylococcus aureus, A355; micro serial dilution (in brackets), about 18 hours, 30° C. or 37° C.; penicillinase-producing strain; read-out: minimal inhibitory concentration (MIC)
Source text: Two drops of a stock solution of the test compound (antibiotic) in a known concentration were brought into the first hole of a test plate with 9 numbered holes with a sterile Pasteur pipette. After rinsing this pipette three times with a physiological NaCl-solution, two drops of a stock solution of the test organism in a culture medium were brought in all the holes except for hole 8. In the first hole, the solution of the tested compound had been half diluted, then by stirring the liquid in the first hole and adding two drops of this mixture to the second hole and so on until hole 8, dilutions of the test compound solution were obtained in geometrical progression. The hole 9 contained no antibiotic and served for checking the growth of the testogranism in a blank medium. The test plate was incubated at 30° C. or 37° C. for about 18 hours.
^1 Penicillinase-producing strain

Haem.infl. A 1030 = assay: micro serial dilution test; format: cell-based; details: micro serial dilution (in brackets), about 18 hours, 30° C. or 37° C.; for MIC: 18 h, read-out: minimal inhibitory concentration (MIC)
Bac.Subt.ATCC 6633 = assay: agar serial dilution test; format: cell-based, Bacillus subtilis; details: agar serial dilution, 24 hours, 37° C.; for MIC: Bacillus subtilis, ATCC6633, 24 h, read-out: minimal inhibitory concentration (MIC)
Prot.rettg. A 821 = assay: agar serial dilution test; format: cell-based, Proteus rettgeri; details: Providencia rettgeri, 24 h, agar serial dilution, 24 hours, 37° C.; read-out: minimal inhibitory concentration (MIC)
Salm.dubl. P 43 = assay: agar serial dilution test; format: cell-based, Salmonella dublin; details: Salmonella enterica, read-out: minimal inhibitory concentration (MIC)
Dipl.pneum. L 54 = assay: agar serial dilution test; format: cell-based, Diplococcus pneumoniae; details: Streptococcus pneumoniae; agar serial dilution, 24 hours, 37° C.; read-out: minimal inhibitory concentration (MIC)
Strep.haem. A 266 = assay: agar serial dilution test; format: cell-based, Streptococcus haemolyticus; details: Streptococcus; agar serial dilution, 24 hours, 37° C.; read-out: minimal inhibitory concentration (MIC)
[8] = agar serial dilution, 24 hours, 37° C.
[9] = U20, agar serial dilution, 24 hours, 37° C., read-out: minimal inhibitory concentration (MIC)
[10] = agar serial dilution, 24 hours, 37° C., read-out: minimal inhibitory concentration (MIC)

Row | SMILES | MIC (Staph.aureus A 2001 [1]) [µg/mL] | MIC (Shig.equir. T 3) [µg/mL] | MIC (Pseud.aerug. 2396) [µg/mL] | MIC (Strep. faec. L 80) [µg/mL] | MIC (Past.multo. A 723) [µg/mL] | MIC (Prot.mirab. H 3) [µg/mL] | MIC (Pseud.aerug. H 10) [µg/mL] | MIC (Kleb.pneum. A 809) [µg/mL] | MIC (Prot.morg. 2241) [µg/mL] | MIC (Staph.aureus A 2000 [2]) [µg/mL] | MIC (Staph.aureus A 2001 [3]) [µg/mL] | MIC (Staph.aureus A 2000 [4]) [µg/mL] | MIC (Staph.aureus A 355 [5]) [µg/mL] | MIC [6] [µg/mL] | MIC (Staph.aureus A 321) [µg/mL] | MIC (Staph.aureus A 355 [7]) [µg/mL] | MIC (Prot.rettg. A 821) [µg/mL] | MIC (Salm.dubl. P 43; [8]) [µg/mL] | MIC (Dipl.pneum. L 54) [µg/mL] | MIC (Salm.typh. R 127) [µg/mL] | other results
1 | CC(=O)OCC1=C(C(=O)O)N2C(=O)[C@@H](NC(=O)Cc3nc(C)no3)[C@H]2SC1 [Compound D, sodium-7-[(3-methyl-1,2,4-oxadiazol-5-yl)-acetamido]-3-acetoxymethyl-3-cephem-4-carboxylate] | 0.6 | 6 | > 100 | 50 | 1.5 | 25 | > 100 | 3 | > 100 | 1 | 0.75 | 0.75 | 0.5 | > 100 | 0.5 | 0.6 | 1.5 | 3 | 0.75 |  | minimal inhibitory concentration (MIC) (Salm.typh. R 127; 24 hours): 12.5 µg/mL; MIC (Esch.coli U 20; U20, 24 h, read-out: minimal inhibitory concentration (MIC), agar serial dilution, 24 hours, 37° C.): 12.5 µg/mL; minimal inhibitory concentration (MIC) (Prot.mirab. A 1200): 25 µg/mL; MIC (Prot.mirab. L 93; 24 h, read-out: minimal inhibitory concentration (MIC), agar serial dilution, 24 hours, 37° C.): 12.5 µg/mL; minimal inhibitory concentration (MIC) (Haem.infl. A 1030): 30 µg/mL; minimal inhibitory concentration (MIC) (Bac.Subt.ATCC 6633): 0.12 µg/mL
2 | Cc1noc(CC(=O)N[C@@H]2C(=O)N3[C@@H]2SC(C)(C)[C@@H]3C(=O)O)n1 [Example 11B, sodium 6-[(3-methyl-1,2,4-oxadiazol-5-yl)-acetamido]-penicillanate H2 O] | 2.5 | 3 | > 100 | 6 | 1 | 50 | > 100 | > 100 | > 100 | > 12 | 3 | 50 | 50 | > 100 | 0.12 | > 12 | 50 |  | 0.25 | 12.5 | MIC (Strep.haem. A 266): 0.03 µg/mL; MIC (Esch.coli U 20; [9]): 50 µg/mL; MIC (Prot.mirab. A 1200): > 100 µg/mL; MIC (Prot.mirab. L 93; [10]): 3 µg/mL; MIC (Haem.infl. A 1030): 125 µg/mL; MIC (Bac.Subt.ATCC 6633): 0.03 µg/mL; MIC (Salm.dubl. P 43; 24 h): 12.5 µg/mL
3 | COC(=O)C(C(=O)N[C@@H]1C(=O)N2C(C(=O)O)=C(COC(C)=O)CS[C@H]12)c1nc(C)no1 (stereo partly drawn) [Example 38, 7-[3-methyl-α-carbomethoxy-1,2,4-oxadiazol-5-yl-acetamido]cephalosporanic acid] | 15 (≈ 33 µM) | 50 (≈ 110 µM) | > 100 | > 100 | 12.5 (≈ 27.5 µM) | 100 (≈ 220 µM) | > 100 | 50 (≈ 110 µM) | > 100 | 23 (≈ 50.6 µM) | 25 (≈ 55 µM) | 25 (≈ 55 µM) | 25 (≈ 55 µM) | > 100 | 25 (≈ 55 µM) | 23 (≈ 50.6 µM) | 25 (≈ 55 µM) | 100 (≈ 220 µM) | 12.5 (≈ 27.5 µM) | 100 (≈ 220 µM) | MIC (Esch.coli U 20; [9]): > 100 µg/mL; MIC (Prot.mirab. A 1200): > 100 µg/mL; MIC (Prot.mirab. L 93; [10]): 50 µg/mL (≈ 110 µM); MIC (Haem.infl. A 1030): 125 µg/mL (≈ 275 µM); MIC (Bac.Subt.ATCC 6633): 6 µg/mL (≈ 13.2 µM)
